System: 186277-243-T-J2-PDC complex spheroids, viability
Assay: Anticancer human tumor 186277-243-T-J2-PDC patient-derived colon adenocarcinoma cell line growth inhibition [RAS]
Conditions: for IC50: curve of first compound; for viability, T/C: stronger effect = lower value; active = viability on the fitted dose curve at most 10% of control; inactive = the rest
Procedure, shortened: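 Multi-cell-type spheroids: tumor cells plus HUVEC endothelial cells and mesenchymal stem cells. RAS-pathway inhibitors were combined with targeted agents, each dosed in half-log steps down from clinical Cmax, or from 10 microM when Cmax was unknown.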
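Note: spheroids exposed to compounds for 7 days before viability read.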

Cc1nc(N2CCC3(CC2)COC(C)C3N)c(CO)nc1Sc1ccnc(N)c1Cl (stereo unspecified) + CCn1c(-c2cc(N3CCN(C)CC3)cnc2C(C)OC)c2c3cc(ccc31)-c1csc(n1)CC(NC(=O)C1CC1C)C(=O)N1CCCC(N1)C(=O)OCC(C)(C)C2
< 31.6 nM: IC50 (second compound 0.00949 µM) | IC50 (second compound 0.03 µM) | IC50 (second compound 0.0949 µM) | IC50 (second compound 0.3 µM)
616 nM: IC50 (second compound 0.000949 µM)
inactive: viability, T/C (second compound 0.000949 µM, first compound 0.0316 µM) 94.6% | viability, T/C (second compound 0.000949 µM, first compound 0.1 µM) 110% | viability, T/C (second compound 0.000949 µM, first compound 0.316 µM) 76.3% | viability, T/C (second compound 0.000949 µM, first compound 1 µM) 30.1% | viability, T/C (second compound 0.003 µM, first compound 0.0316 µM) 91.2% | viability, T/C (second compound 0.003 µM, first compound 0.1 µM) 58.7% | viability, T/C (second compound 0.003 µM, first compound 0.316 µM) 18.3% | viability, T/C (second compound 0.00949 µM, first compound 0.0316 µM) 27.1% | viability, T/C (second compound 0.00949 µM, first compound 0.1 µM) 13.6%
active: viability, T/C (second compound 0.000949 µM, first compound 3.16 µM) 9.66% | viability, T/C (second compound 0.000949 µM, first compound 10 µM) 5.87% | viability, T/C (second compound 0.003 µM, first compound 1 µM) 8.06% | viability, T/C (second compound 0.003 µM, first compound 3.16 µM) 4.43% | viability, T/C (second compound 0.003 µM, first compound 10 µM) 2.87% | viability, T/C (second compound 0.00949 µM, first compound 0.316 µM) 6.12% | viability, T/C (second compound 0.00949 µM, first compound 1 µM) 4.02% | viability, T/C (second compound 0.00949 µM, first compound 3.16 µM) 3.42% | viability, T/C (second compound 0.00949 µM, first compound 10 µM) 2.67% | viability, T/C (second compound 0.03 µM, first compound 0.0316 µM) 9.41% | viability, T/C (second compound 0.03 µM, first compound 0.1 µM) 7.94% | viability, T/C (second compound 0.03 µM, first compound 0.316 µM) 4.32% | viability, T/C (second compound 0.03 µM, first compound 1 µM) 3.62% | viability, T/C (second compound 0.03 µM, first compound 3.16 µM) 2.89% | viability, T/C (second compound 0.03 µM, first compound 10 µM) 2.28% | viability, T/C (second compound 0.0949 µM, first compound 0.0316 µM) 5.71% | viability, T/C (second compound 0.0949 µM, first compound 0.1 µM) 4.9% | viability, T/C (second compound 0.0949 µM, first compound 0.316 µM) 3.65% | viability, T/C (second compound 0.0949 µM, first compound 1 µM) 3.26% | viability, T/C (second compound 0.0949 µM, first compound 3.16 µM) 2.76% | viability, T/C (second compound 0.0949 µM, first compound 10 µM) 1.95% | viability, T/C (second compound 0.3 µM, first compound 0.0316 µM) 4.72% | viability, T/C (second compound 0.3 µM, first compound 0.1 µM) 4.35% | viability, T/C (second compound 0.3 µM, first compound 0.316 µM) 3.45% | viability, T/C (second compound 0.3 µM, first compound 1 µM) 3.1% | viability, T/C (second compound 0.3 µM, first compound 3.16 µM) 2.4% | viability, T/C (second compound 0.3 µM, first compound 10 µM) 1.92%
128 nM: IC50 (second compound 0.003 µM)

CC(=O)OC12COC1CC(O)C1(C)C(=O)C(O)C3=C(C)C(OC(=O)C(O)C(NC(=O)OC(C)(C)C)c4ccccc4)CC(O)(C(OC(=O)c4ccccc4)C21)C3(C)C (stereo unspecified) + C#Cc1c(F)ccc2cc(O)cc(-c3ncc4c(N5CC6CCC(C5)N6)nc(OCC56CCCN5CC(F)C6)nc4c3F)c12
< 31.6 nM: IC50 (second compound 0.0316 µM) | IC50 (second compound 0.1 µM) | IC50 (second compound 0.316 µM) | IC50 (second compound 1 µM) | IC50 (second compound 3.16 µM) | IC50 (second compound 10 µM)
active: viability, T/C (second compound 0.0316 µM, first compound 0.0316 µM) 5.3% | viability, T/C (second compound 0.0316 µM, first compound 0.1 µM) 5.14% | viability, T/C (second compound 0.0316 µM, first compound 0.316 µM) 5.59% | viability, T/C (second compound 0.0316 µM, first compound 1 µM) 4.15% | viability, T/C (second compound 0.0316 µM, first compound 3.16 µM) 5.04% | viability, T/C (second compound 0.0316 µM, first compound 10 µM) 4.9% | viability, T/C (second compound 0.1 µM, first compound 0.0316 µM) 6.01% | viability, T/C (second compound 0.1 µM, first compound 0.1 µM) 5.73% | viability, T/C (second compound 0.1 µM, first compound 0.316 µM) 4.94% | viability, T/C (second compound 0.1 µM, first compound 1 µM) 4.03% | viability, T/C (second compound 0.1 µM, first compound 3.16 µM) 5.26% | viability, T/C (second compound 0.1 µM, first compound 10 µM) 3.53% | viability, T/C (second compound 0.316 µM, first compound 0.0316 µM) 5.77% | viability, T/C (second compound 0.316 µM, first compound 0.1 µM) 4.92% | viability, T/C (second compound 0.316 µM, first compound 0.316 µM) 4.48% | viability, T/C (second compound 0.316 µM, first compound 1 µM) 4.42% | viability, T/C (second compound 0.316 µM, first compound 3.16 µM) 4.75% | viability, T/C (second compound 0.316 µM, first compound 10 µM) 5% | viability, T/C (second compound 1 µM, first compound 0.0316 µM) 4.79% | viability, T/C (second compound 1 µM, first compound 0.1 µM) 5.04% | viability, T/C (second compound 1 µM, first compound 0.316 µM) 4.17% | viability, T/C (second compound 1 µM, first compound 1 µM) 4.69% | viability, T/C (second compound 1 µM, first compound 3.16 µM) 5.21% | viability, T/C (second compound 1 µM, first compound 10 µM) 4.15% | viability, T/C (second compound 3.16 µM, first compound 0.0316 µM) 3.84% | viability, T/C (second compound 3.16 µM, first compound 0.1 µM) 4.36% | viability, T/C (second compound 3.16 µM, first compound 0.316 µM) 4.81% | viability, T/C (second compound 3.16 µM, first compound 1 µM) 3.94% | viability, T/C (second compound 3.16 µM, first compound 3.16 µM) 4.59% | viability, T/C (second compound 3.16 µM, first compound 10 µM) 3.53% | viability, T/C (second compound 10 µM, first compound 0.0316 µM) 4.68% | viability, T/C (second compound 10 µM, first compound 0.1 µM) 3.75% | viability, T/C (second compound 10 µM, first compound 0.316 µM) 4.17% | viability, T/C (second compound 10 µM, first compound 1 µM) 4.45% | viability, T/C (second compound 10 µM, first compound 3.16 µM) 4.43% | viability, T/C (second compound 10 µM, first compound 10 µM) 3.61%

CC1(C)CCC(Nc2ncc(C(F)(F)F)c(-c3c[nH]c4c(P(C)(C)=O)c(C#N)ccc34)n2)CN1 (stereo unspecified) + C=CC(=O)N1CCN(c2nc(OCC3CCCN3C)nc3c(F)c(-c4nc(N)cc(C)c4C(F)(F)F)c(Cl)cc23)C(C)C1
inactive: viability, T/C (second compound 0.00316 µM, first compound 0.000949 µM) 94.9% | viability, T/C (second compound 0.00316 µM, first compound 0.003 µM) 98.4% | viability, T/C (second compound 0.00316 µM, first compound 0.00949 µM) 143% | viability, T/C (second compound 0.00316 µM, first compound 0.03 µM) 66.8% | viability, T/C (second compound 0.00316 µM, first compound 0.0949 µM) 75.5% | viability, T/C (second compound 0.00316 µM, first compound 0.3 µM) 56.9% | viability, T/C (second compound 0.01 µM, first compound 0.000949 µM) 109% | viability, T/C (second compound 0.01 µM, first compound 0.003 µM) 115% | viability, T/C (second compound 0.01 µM, first compound 0.00949 µM) 146% | viability, T/C (second compound 0.01 µM, first compound 0.03 µM) 58.6% | viability, T/C (second compound 0.01 µM, first compound 0.0949 µM) 60.2% | viability, T/C (second compound 0.01 µM, first compound 0.3 µM) 66.4% | viability, T/C (second compound 0.0316 µM, first compound 0.000949 µM) 101% | viability, T/C (second compound 0.0316 µM, first compound 0.003 µM) 118% | viability, T/C (second compound 0.0316 µM, first compound 0.00949 µM) 135% | viability, T/C (second compound 0.0316 µM, first compound 0.03 µM) 85.4% | viability, T/C (second compound 0.0316 µM, first compound 0.0949 µM) 66.7% | viability, T/C (second compound 0.0316 µM, first compound 0.3 µM) 65.9% | viability, T/C (second compound 0.1 µM, first compound 0.000949 µM) 96.6% | viability, T/C (second compound 0.1 µM, first compound 0.003 µM) 120% | viability, T/C (second compound 0.1 µM, first compound 0.00949 µM) 120% | viability, T/C (second compound 0.1 µM, first compound 0.03 µM) 71.4% | viability, T/C (second compound 0.1 µM, first compound 0.0949 µM) 69.7% | viability, T/C (second compound 0.1 µM, first compound 0.3 µM) 63.2% | viability, T/C (second compound 0.316 µM, first compound 0.000949 µM) 103% | viability, T/C (second compound 0.316 µM, first compound 0.003 µM) 96% | viability, T/C (second compound 0.316 µM, first compound 0.00949 µM) 98.5% | viability, T/C (second compound 0.316 µM, first compound 0.03 µM) 82.2% | viability, T/C (second compound 0.316 µM, first compound 0.0949 µM) 65% | viability, T/C (second compound 0.316 µM, first compound 0.3 µM) 62.1% | viability, T/C (second compound 1 µM, first compound 0.000949 µM) 112% | viability, T/C (second compound 1 µM, first compound 0.003 µM) 102% | viability, T/C (second compound 1 µM, first compound 0.00949 µM) 114% | viability, T/C (second compound 1 µM, first compound 0.03 µM) 70.8% | viability, T/C (second compound 1 µM, first compound 0.0949 µM) 64.3% | viability, T/C (second compound 1 µM, first compound 0.3 µM) 68.5%
> 300 nM: IC50 (second compound 0.00316 µM) | IC50 (second compound 0.01 µM) | IC50 (second compound 0.0316 µM) | IC50 (second compound 0.1 µM) | IC50 (second compound 0.316 µM) | IC50 (second compound 1 µM)
